Results from PubChem BioAssay (NCI).
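GI50: concentration for 50% inhibition of growth. TGI denotes the concentration required for complete inhibition of growth.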

What was measured:
Experiment in all cases: growth of human tumour cells (NCI), 384-well format
TK-10 renal = tested on: TK-10 renal
OVCAR-4 ovarian = tested on: OVCAR-4 ovarian
SF-295 CNS = tested on: SF-295 CNS
T-47D breast = tested on: T-47D breast
HCT-15 colon = tested on: HCT-15 colon
COLO 205 colon = tested on: COLO 205 colon
K-562 leukemia = tested on: K-562 leukemia
M14 melanoma = tested on: M14 melanoma
BT-549 breast = tested on: BT-549 breast
HCC-2998 colon = tested on: HCC-2998 colon
SNB-19 CNS = tested on: SNB-19 CNS
A498 renal = tested on: A498 renal
SR leukemia = tested on: SR leukemia
MDA-MB-468 breast = tested on: MDA-MB-468 breast
HS 578T breast = tested on: HS 578T breast
MCF7 breast = tested on: MCF7 breast
RXF 393 renal = tested on: RXF 393 renal
NCI-H226 lung = tested on: NCI-H226 lung
SK-OV-3 ovarian = tested on: SK-OV-3 ovarian
SW-620 colon = tested on: SW-620 colon
NCI-H322M lung = tested on: NCI-H322M lung
A549 NSCLC = tested on: A549 NSCLC
MALME-3M melanoma = tested on: MALME-3M melanoma
PC-3 prostate = tested on: PC-3 prostate
U251 glioblastoma = tested on: U251 glioblastoma
SK-MEL-5 melanoma = tested on: SK-MEL-5 melanoma
EKVX NSCLC = tested on: EKVX NSCLC
HOP-62 NSCLC = tested on: HOP-62 NSCLC
SK-MEL-28 melanoma = tested on: SK-MEL-28 melanoma
MDA-MB-231 breast = tested on: MDA-MB-231 breast
MDA-MB-435 melanoma = tested on: MDA-MB-435 melanoma
OVCAR-5 ovarian = tested on: OVCAR-5 ovarian
SF-268 CNS = tested on: SF-268 CNS
UO-31 renal = tested on: UO-31 renal
SK-MEL-2 melanoma = tested on: SK-MEL-2 melanoma
OVCAR-3 ovarian = tested on: OVCAR-3 ovarian
CAKI-1 renal = tested on: CAKI-1 renal
HL-60(TB) leukemia = tested on: HL-60(TB) leukemia
NCI-H460 NSCLC = tested on: NCI-H460 NSCLC
OVCAR-8 ovarian = tested on: OVCAR-8 ovarian
UACC-257 melanoma = tested on: UACC-257 melanoma
HT29 colon = tested on: HT29 colon
SN12C renal = tested on: SN12C renal
NCI/ADR-RES ovarian = tested on: NCI/ADR-RES ovarian
KM12 colon = tested on: KM12 colon
ACHN renal = tested on: ACHN renal
UACC-62 melanoma = tested on: UACC-62 melanoma

SMILES: C[C@@H](C(=O)Nc1ccc(Cl)cc1)C1CCC(c2ccnc3ccc(F)cc23)CC1 (some centres undefined)
- GI50 (TK-10 renal): 11.3 µM
- TGI (TK-10 renal): 86.2 µM
- GI50 (OVCAR-4 ovarian): 13.9 µM
- TGI (OVCAR-4 ovarian): 50.2 µM
- GI50 (SF-295 CNS): 10 µM
- TGI (SF-295 CNS): 31.1 µM
- GI50 (T-47D breast): 4.42 µM
- TGI (T-47D breast): 25.2 µM
- GI50 (HCT-15 colon): 11.8 µM
- TGI (HCT-15 colon): 25.6 µM
- GI50 (COLO 205 colon): 17.4 µM
- TGI (COLO 205 colon): > 62.3 µM
- GI50 (K-562 leukemia): 3.38 µM
- TGI (K-562 leukemia): 13.7 µM
- GI50 (M14 melanoma): 13 µM
- TGI (M14 melanoma): 40.8 µM
- GI50 (BT-549 breast): 7.14 µM
- TGI (BT-549 breast): 20.6 µM
- GI50 (HCC-2998 colon): 4.23 µM
- TGI (HCC-2998 colon): 15.9 µM
- GI50 (SNB-19 CNS): 17.5 µM
- TGI (SNB-19 CNS): 52.8 µM
- GI50 (A498 renal): 5.31 µM
- TGI (A498 renal): 21.1 µM
- GI50 (SR leukemia): 584 nM
- TGI (SR leukemia): 1460 nM
- GI50 (MDA-MB-468 breast): 2170 nM
- TGI (MDA-MB-468 breast): 8.1 µM
- GI50 (HS 578T breast): 12.7 µM
- TGI (HS 578T breast): 27.4 µM
- GI50 (MCF7 breast): 7.97 µM
- TGI (MCF7 breast): 25.7 µM
- GI50 (RXF 393 renal): 6.04 µM
- TGI (RXF 393 renal): 20.9 µM
- GI50 (NCI-H226 lung): 12.2 µM
- TGI (NCI-H226 lung): 28 µM
- GI50 (SK-OV-3 ovarian): 16.3 µM
- TGI (SK-OV-3 ovarian): 42.7 µM
- GI50 (SW-620 colon): 8.3 µM
- TGI (SW-620 colon): 22.6 µM
- GI50 (NCI-H322M lung): 17.7 µM
- TGI (NCI-H322M lung): 78.2 µM
- GI50 (A549 NSCLC): 6.9 µM
- TGI (A549 NSCLC): 66.5 µM
- GI50 (MALME-3M melanoma): 15.3 µM
- TGI (MALME-3M melanoma): 37.5 µM
- GI50 (PC-3 prostate): 5.72 µM
- TGI (PC-3 prostate): 19 µM
- GI50 (U251 glioblastoma): 9.96 µM
- TGI (U251 glioblastoma): 26.2 µM
- GI50 (SK-MEL-5 melanoma): 4.31 µM
- TGI (SK-MEL-5 melanoma): 16.2 µM
- GI50 (EKVX NSCLC): 4.09 µM
- TGI (EKVX NSCLC): 18.7 µM
- GI50 (HOP-62 NSCLC): 12.8 µM
- TGI (HOP-62 NSCLC): 29.5 µM
- GI50 (SK-MEL-28 melanoma): 20.6 µM
- TGI (SK-MEL-28 melanoma): > 92 µM
- GI50 (MDA-MB-231 breast): 13.3 µM
- TGI (MDA-MB-231 breast): 65.1 µM
- GI50 (MDA-MB-435 melanoma): 16.9 µM
- TGI (MDA-MB-435 melanoma): 36.7 µM
- GI50 (OVCAR-5 ovarian): 13 µM
- TGI (OVCAR-5 ovarian): 35.3 µM
- GI50 (SF-268 CNS): 6.42 µM
- TGI (SF-268 CNS): 22.7 µM
- GI50 (UO-31 renal): 15.8 µM
- TGI (UO-31 renal): 83.2 µM
- GI50 (SK-MEL-2 melanoma): 3.07 µM
- TGI (SK-MEL-2 melanoma): 10.2 µM
- GI50 (OVCAR-3 ovarian): 7.15 µM
- TGI (OVCAR-3 ovarian): 19.9 µM
- GI50 (CAKI-1 renal): 19.2 µM
- TGI (CAKI-1 renal): 54.7 µM
- GI50 (HL-60(TB) leukemia): 1350 nM
- TGI (HL-60(TB) leukemia): 2900 nM
- GI50 (NCI-H460 NSCLC): 2850 nM
- TGI (NCI-H460 NSCLC): 8.81 µM
- GI50 (OVCAR-8 ovarian): 10.4 µM
- TGI (OVCAR-8 ovarian): 25.8 µM
- GI50 (UACC-257 melanoma): 13.7 µM
- TGI (UACC-257 melanoma): 31.4 µM
- GI50 (HT29 colon): 9.74 µM
- TGI (HT29 colon): 23.1 µM
- GI50 (SN12C renal): 12.7 µM
- TGI (SN12C renal): 28.2 µM
- GI50 (NCI/ADR-RES ovarian): 5.62 µM
- TGI (NCI/ADR-RES ovarian): 22 µM
- GI50 (KM12 colon): 5.81 µM
- TGI (KM12 colon): 19.8 µM
- GI50 (ACHN renal): 9.63 µM
- TGI (ACHN renal): 41.4 µM
- GI50 (UACC-62 melanoma): 14.9 µM
- TGI (UACC-62 melanoma): 29.3 µM
